From ChEMBL document CHEMBL3616396, “Integrated kinetic studies and computational analysis on naphthyl chalcones as mushroom tyrosinase inhibitors” (Bioorg Med Chem Lett, 2015)
Activity calls are given as the source filed them. The calls are words filed in the database; no cut-off is given here.

What was measured:
[1] = target: T1, Tyrosinase (Agaricus bisporus) (UniProt O42713); test: Competitive inhibition of mushroom tyrosinase assessed as reduction in L-DOPA oxidase activity at 0.15 mM to 0.6 mM using L-DOPA substrate by Lineweaver-Burk plot
T1 sequence (whole entry): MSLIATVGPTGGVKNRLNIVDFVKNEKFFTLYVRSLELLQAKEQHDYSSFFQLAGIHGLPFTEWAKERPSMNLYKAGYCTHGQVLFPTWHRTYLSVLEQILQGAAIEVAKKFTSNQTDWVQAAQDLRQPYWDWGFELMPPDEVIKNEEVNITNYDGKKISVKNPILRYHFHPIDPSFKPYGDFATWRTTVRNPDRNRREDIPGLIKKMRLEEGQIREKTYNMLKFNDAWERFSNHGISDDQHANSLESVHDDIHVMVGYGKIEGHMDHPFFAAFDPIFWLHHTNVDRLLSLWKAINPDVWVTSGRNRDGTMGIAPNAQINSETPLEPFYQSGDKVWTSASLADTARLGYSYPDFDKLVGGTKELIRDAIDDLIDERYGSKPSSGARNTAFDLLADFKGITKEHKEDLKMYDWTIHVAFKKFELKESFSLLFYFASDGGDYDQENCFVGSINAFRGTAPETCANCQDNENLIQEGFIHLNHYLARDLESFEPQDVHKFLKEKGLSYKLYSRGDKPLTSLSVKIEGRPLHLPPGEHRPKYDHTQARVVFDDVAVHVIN

Tyrosinase [2] = target: T2, Tyrosinase (Agaricus bisporus, UniProt O42713)
T2 sequence (O42713 whole entry): T1 sequence (whole entry)
Description: Inhibition of mushroom tyrosinase assessed as reduction in L-DOPA oxidase activity using L-DOPA substrate

Tyrosinase [3] = target: T2, Tyrosinase; remark: listed apart in the source
Description: Inhibition of mushroom tyrosinase assessed as reduction in L-DOPA oxidase activity using L-DOPA substrate at 5 uM by Dixon plot

Row | inhibition [1] | IC50 (Tyrosinase [2]) [µM] | Ki (Tyrosinase [3]) [µM] | Compound
1 | Active | 52.9 | 28.6 | COc1cc(/C=C/C(=N\O)c2cc3ccccc3cc2O)cc(OC)c1
2 | Active | 21.9 | 9.4 | COc1ccc(OC)c(/C=C/C(=N\O)c2cc3ccccc3cc2O)c1
3 | Active | 42.3 | 22.9 | COc1ccc(/C=C/C(=N\O)c2cc3ccccc3cc2O)cc1OC

Continued, compound first:

Row | Compound | inhibition [1] | IC50 (Tyrosinase [2]) [µM] | Ki (Tyrosinase [3]) [µM]
4 | COc1ccc(/C=C/C(=N\O)c2cc3ccccc3cc2O)c(OC)c1 | Active | 23 | 10.6
5 | O/N=C(\C=C\c1ccncc1)c1cc2ccccc2cc1O | Active | 19.5 | 7.82
6 | O/N=C(\C=C\c1cccnc1)c1cc2ccccc2cc1O | Active | 12.2 | 6.46
7 | O/N=C(\C=C\c1ccccn1)c1cc2ccccc2cc1O | Active | 20.2 | 11.1
